Experiments:
Conditions in all cases: 72 h
Caco-2 [1] = assay: drug sensitivity score (DSS) for viability; higher = more toxic; extreme values may be limits of the assay
Calu-3 [2] = assay: as above
Vero E6 [3] = assay: as above
HepG2 [4] = assay: as above
U2OS [5] = assay: as above
Caco-2 [6] = assay: cell viability relative to DMSO; higher = less toxic
Calu-3 [7] = assay: as above
Vero E6 [8] = assay: as above
HepG2 [9] = assay: as above
U2OS [10] = assay: as above
Caco-2 [11] = assay: relative viability EC50 (midpoint between 100% and the lowest measured viability); higher = less toxic
Calu-3 [12] = assay: as above
Vero E6 [13] = assay: as above
HepG2 [14] = assay: as above
U2OS [15] = assay: as above

Row | SMILES | drug sensitivity score (Caco-2 [1]) | drug sensitivity score (Calu-3 [2]) | drug sensitivity score (Vero E6 [3]) | drug sensitivity score (HepG2 [4]) | drug sensitivity score (U2OS [5]) | cell viability (Caco-2 [6]; 1 nM) [%] | cell viability (Caco-2 [6]; 10 nM) [%] | cell viability (Caco-2 [6]; 100 nM) [%] | cell viability (Caco-2 [6]; 1000 nM) [%] | cell viability (Caco-2 [6]; 10000 nM) [%] | cell viability (Calu-3 [7]; 1 nM) [%] | cell viability (Calu-3 [7]; 10 nM) [%] | cell viability (Calu-3 [7]; 100 nM) [%] | cell viability (Calu-3 [7]; 1000 nM) [%] | cell viability (Calu-3 [7]; 10000 nM) [%] | cell viability (Vero E6 [8]; 1 nM) [%] | cell viability (Vero E6 [8]; 10 nM) [%] | cell viability (Vero E6 [8]; 100 nM) [%] | cell viability (Vero E6 [8]; 1000 nM) [%] | cell viability (Vero E6 [8]; 10000 nM) [%] | cell viability (HepG2 [9]; 1 nM) [%] | cell viability (HepG2 [9]; 10 nM) [%] | cell viability (HepG2 [9]; 100 nM) [%] | cell viability (HepG2 [9]; 1000 nM) [%] | cell viability (HepG2 [9]; 10000 nM) [%] | cell viability (U2OS [10]; 1 nM) [%] | cell viability (U2OS [10]; 10 nM) [%] | cell viability (U2OS [10]; 100 nM) [%] | cell viability (U2OS [10]; 1000 nM) [%] | cell viability (U2OS [10]; 10000 nM) [%] | relative viability EC50 (Caco-2 [11]) [µM] | relative viability EC50 (Calu-3 [12]) [µM] | relative viability EC50 (Vero E6 [13]) [µM] | relative viability EC50 (HepG2 [14]) [µM] | relative viability EC50 (U2OS [15]) [µM]
1 | O=S1(=O)c2cccc3cccc(c23)N1CCCN1CCN(c2ccc(F)cc2)CC1 [fananserin] | 0 | 0 | 0 | 0 | 0 | 105 | 102 | 100 | 100 | 96.7 | 108 | 89.5 | 94.2 | 111 | 104 | 96.8 | 96.9 | 98.1 | 91.8 | 94.6 | 96.4 | 106 | 107 | 94 | 95.4 | 101 | 102 | 100 | 103 | 99.3 | > 10 | > 10 | > 10 | > 10 | > 10
2 | c1ccc([C@@H]2C[C@H]2NC2CCNCC2)cc1 [GSK-LSD-1] | 0 | 0 | 0 | 0 | 0 | 98.5 | 95.2 | 96.5 | 87.1 | 92.2 | 102 | 88 | 96.8 | 95.8 | 93.4 | 97.1 | 99.4 | 96.4 | 101 | 95.6 | 92.6 | 96.4 | 93 | 98.8 | 97.2 | 102 | 98.1 | 104 | 94.6 | 104 | > 10 | > 10 | > 10 | > 10 | > 10
3 | Cc1onc(-c2ccccc2)c1-c1ccc(S(N)(=O)=O)cc1 [valdecoxib] | 0 | 0 | 0 | 0 | 0 | 103 | 97.5 | 98 | 93.4 | 93.6 | 95.6 | 104 | 105 | 96.9 | 106 | 102 | 99.1 | 106 | 93.8 | 99.5 | 89.6 | 95.3 | 97.5 | 96 | 96.1 | 96.5 | 94.9 | 97.8 | 99.5 | 98.5 | > 10 | > 10 | > 10 | > 10 | > 10
4 | O=C(O)CCCN1C(=O)c2cccc3cccc(c23)C1=O [isodibut] | 0 | 0 | 0 | 0 | 0 | 105 | 90.9 | 93.6 | 98.6 | 95.4 | 99.1 | 97.8 | 96.9 | 94.8 | 114 | 97 | 97.9 | 103 | 101 | 99.1 | 96.1 | 95.8 | 104 | 105 | 98.9 | 99.3 | 96.6 | 97.7 | 97.6 | 95.7 | > 10 | > 10 | > 10 | > 10 | > 10
5 | CC(C)(C=O)Cc1cc(C(C)(C)C)c(O)c(C(C)(C)C)c1 | 0 | 0 | 0 | 0 | 0 | 92.7 | 97.6 | 97.6 | 90.4 | 96.7 | 102 | 98.8 | 91.2 | 100 | 102 | 97.1 | 97.8 | 103 | 98.4 | 101 | 97.2 | 96.1 | 108 | 99.9 | 90.9 | 106 | 103 | 104 | 98.1 | 102 | > 10 | > 10 | > 10 | > 10 | > 10
6 | O=C(Nc1ccccc1C(=O)NC1CCCCNC1=O)c1cc2ccccc2s1 (stereo not given) [ANA-12] | 0 | 0.3 | 0 | 0 | 0 | 90.9 | 97.4 | 96.1 | 106 | 96.4 | 99.6 | 95.3 | 101 | 94.7 | 87.7 | 100 | 99.3 | 99.8 | 89.5 | 104 | 104 | 93.1 | 100 | 91.4 | 98.4 | 97.8 | 101 | 91.5 | 104 | 96.7 | > 10 | > 10 | > 10 | > 10 | > 10

Reference: the supplement of paper PMC13380429
